Columns and labels:
[1] = target: T1, Pyruvate kinase isolated from rabbit muscle (Oryctolagus cuniculus, UniProt P11974); assay: Inhibition of pyruvate kinase (indirect assay quantifying ADP production); assay type: biochemical
T1 construct: Pyruvate kinase isolated from rabbit muscle; purchased Sigma-Aldrich; host or cells: rabbit muscle (tissue-derived enzyme)
Experimental: The compounds E-3-chlorophosphoenolpyruvate ditriethyl-ammonium salt (ECPDAT), Z-3-chlorophosphoenolpyruvate tritriethyl-ammonium salt (CPTP), phosphoenol-3-bromo-pyruvic acid mono-cyclohexyl ammonium salt (PBPA), 2-bromooxoethylphosphonic acid mono-cyclohexyl-ammonium salt (BOEPA) and 3-bromopyruvic acid (BrPyA) were tested for their efficiency at inhibiting pyruvate kinase. Pyruvate kinase isolated from rabbit muscle was purchased from Sigma-Aldrich. Pyruvate kinase was assayed indirectly by quantifying ADP production formed in the reaction ATP+pyruvate to ADP+phosphoenolpyruvate. Inhibitors were added to the reaction mixture immediately before the reaction was started by the addition of ATP.

[2] = tested on: MCF7 (breast) cancer cell line; assay: MTT assay, inhibition of cell proliferation, MCF7; assay type: cell-based; settings: MCF7, 72 hours
Experimental: (§1) The compounds of the invention were tested for their inhibition potential of cell proliferation. MCF7 (breast) and SF268 (glioma) cancer cell lines were incubated with different concentrations of the compounds and their viability was assessed using an MTT (3-(4,5-dimethylthiazol-2-yl)-2,5-diphenyltetrazolium bromide) assay. The MTT assay is well known in the art (see for example Slater et al., Biochim. Biophys. Acta 77 (1963) 383). The cells were incubated with a given inhibitor for 72 hours and assayed.

[3] = tested on: SF268 (glioma) cancer cell line; assay: MTT assay, inhibition of cell proliferation, SF268; assay type: cell-based; settings: SF268, 72 hours
Experimental: as §1

T1 sequence (P11974 whole entry): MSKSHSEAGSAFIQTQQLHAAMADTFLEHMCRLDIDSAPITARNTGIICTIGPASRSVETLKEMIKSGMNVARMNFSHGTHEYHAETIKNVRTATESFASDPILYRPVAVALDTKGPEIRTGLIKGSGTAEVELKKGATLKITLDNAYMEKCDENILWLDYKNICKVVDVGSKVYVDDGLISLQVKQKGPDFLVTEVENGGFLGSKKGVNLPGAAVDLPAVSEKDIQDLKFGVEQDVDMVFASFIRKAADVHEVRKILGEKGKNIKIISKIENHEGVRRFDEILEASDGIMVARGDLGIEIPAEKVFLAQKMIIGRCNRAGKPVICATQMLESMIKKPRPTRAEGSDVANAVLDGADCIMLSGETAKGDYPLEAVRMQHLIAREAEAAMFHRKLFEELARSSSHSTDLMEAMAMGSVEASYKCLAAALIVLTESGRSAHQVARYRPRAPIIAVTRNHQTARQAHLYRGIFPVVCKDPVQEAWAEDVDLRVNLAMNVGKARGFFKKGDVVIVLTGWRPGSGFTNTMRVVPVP

Z-3-chlorophosphoenolpyruvate tritriethyl-ammonium salt [CPTP]
Inhibition of pyruvate kinase compared with BrPyA [1]: inhibited pyruvate kinase at lower concentrations than BrPyA | % Inhibition ([1]; Concentration 0.1 μM): 0% | % Inhibition ([1]; Concentration 1 μM): 43.7% | % Inhibition ([1]; Concentration 10 μM): 48.4% | Inhibition of cell proliferation [2]: inhibited cell proliferation | % (A-Blank relative to control) ([2]; 10 uM): 98.7% | A-Blank (Average-Blank) O.D. at 570 nm ([2]; 10 uM): 0.7995 O.D. | Average O.D. reading at 570 nm ([2]; 10 uM): 0.8822 O.D. | % (A-Blank relative to control) ([2]; 25 uM): 98.796% | A-Blank (Average-Blank) O.D. at 570 nm ([2]; 25 uM): 0.8003 O.D. | Average O.D. reading at 570 nm ([2]; 25 uM): 0.883 O.D. | % (A-Blank relative to control) ([2]; 50 uM): 101.05% | A-Blank (Average-Blank) O.D. at 570 nm ([2]; 50 uM): 0.8185 O.D. | Average O.D. reading at 570 nm ([2]; 50 uM): 0.9013 O.D. | % (A-Blank relative to control) ([2]; 75 uM): 96.173% | A-Blank (Average-Blank) O.D. at 570 nm ([2]; 75 uM): 0.779 O.D. | Average O.D. reading at 570 nm ([2]; 75 uM): 0.8618 O.D. | % (A-Blank relative to control) ([2]; 100 uM): 96.358% | A-Blank (Average-Blank) O.D. at 570 nm ([2]; 100 uM): 0.7805 O.D. | Average O.D. reading at 570 nm ([2]; 100 uM): 0.8633 O.D. | % (A-Blank relative to control) ([2]; 200 uM): 88.241% | A-Blank (Average-Blank) O.D. at 570 nm ([2]; 200 uM): 0.7148 O.D. | Average O.D. reading at 570 nm ([2]; 200 uM): 0.7975 O.D. | % (A-Blank relative to control) ([2]; 300 uM): 81.4198% | A-Blank (Average-Blank) O.D. at 570 nm ([2]; 300 uM): 0.6595 O.D. | Average O.D. reading at 570 nm ([2]; 300 uM): 0.7422 O.D. | % (A-Blank relative to control) ([2]; 500 uM): 71.39% | A-Blank (Average-Blank) O.D. at 570 nm ([2]; 500 uM): 0.5783 O.D. | Average O.D. reading at 570 nm ([2]; 500 uM): 0.661 O.D. | Inhibition of cell proliferation [3]: inhibited cell proliferation | % (A-Blank relative to control) ([3]; 10 uM): 99.42% | A-Blank (Average-Blank) O.D. at 570 nm ([3]; 10 uM): 0.6887 O.D. | Average O.D. reading at 570 nm ([3]; 10 uM): 0.775 O.D. | % (A-Blank relative to control) ([3]; 25 uM): 99.892% | A-Blank (Average-Blank) O.D. at 570 nm ([3]; 25 uM): 0.692 O.D. | Average O.D. reading at 570 nm ([3]; 25 uM): 0.7783 O.D. | % (A-Blank relative to control) ([3]; 50 uM): 98.232% | A-Blank (Average-Blank) O.D. at 570 nm ([3]; 50 uM): 0.6805 O.D. | Average O.D. reading at 570 nm ([3]; 50 uM): 0.7668 O.D. | % (A-Blank relative to control) ([3]; 75 uM): 93.829% | A-Blank (Average-Blank) O.D. at 570 nm ([3]; 75 uM): 0.65 O.D. | Average O.D. reading at 570 nm ([3]; 75 uM): 0.7363 O.D. | % (A-Blank relative to control) ([3]; 100 uM): 96.752% | A-Blank (Average-Blank) O.D. at 570 nm ([3]; 100 uM): 0.6703 O.D. | Average O.D. reading at 570 nm ([3]; 100 uM): 0.7565 O.D. | % (A-Blank relative to control) ([3]; 200 uM): 75.893% | A-Blank (Average-Blank) O.D. at 570 nm ([3]; 200 uM): 0.5258 O.D. | Average O.D. reading at 570 nm ([3]; 200 uM): 0.612 O.D. | % (A-Blank relative to control) ([3]; 300 uM): 57.4883% | A-Blank (Average-Blank) O.D. at 570 nm ([3]; 300 uM): 0.3982 O.D. | Average O.D. reading at 570 nm ([3]; 300 uM): 0.4845 O.D. | % (A-Blank relative to control) ([3]; 500 uM): 36.8459% | A-Blank (Average-Blank) O.D. at 570 nm ([3]; 500 uM): 0.2552 O.D. | Average O.D. reading at 570 nm ([3]; 500 uM): 0.3415 O.D.

From patent publication US8026278B2, “Inhibitors of pyruvate kinase as therapeutic agents for cancer” (priority 2005, dated 2011)
